Reference: patent publication US20090191144A1, “USE OF LIPID COMPONENTS AGAINST POLLEN ALLERGIES” (BEIERSDORF AG, priority 2008, published 2009)

Assay: Viscosity of preferred lipids
Assay type: physicochemical
With `CCCCCCCCCCCCCCCCCC(=O)OCCCC` [Crodamol BS, Butyl Stearate] the “Viskosity (in mPas) (s^−1 = 500)” value was 100 mPas. In the case of `CC(C)CCCCCCCCCCCCCCCOC(=O)CC(O)C(=O)OCCCCCCCCCCCCCCCC(C)C` (centres unmarked) [DUB MDIS, Diisostearyl Malate], the “Viskosity (in mPas) (s^−1 = 500)” value is reported as 113 mPas. With `CCCCCCCCCCC(CO)CCCCCCCC` (centres unmarked) [Eutanol G, Octyldodecanol] the “Viskosity (in mPas) (s^−1 = 500)” value was 47.7 mPas. For `CCCCOCCOP(=O)(OCCOCCCC)OCCOCCCC` [Hostaphat B 310, Tributoxyethylphosphate], the “Viskosity (in mPas) (s^−1 = 500)” value was 122 mPas. With `CC(C)CCCC(C)CCCC(C)CCCCC(C)CCCC(C)CCCC(C)C` (centres unmarked) [Motif, Squalan] the “Viskosity (in mPas) (s^−1 = 500)” value was 220 mPas. For `CCCCC(CC)C(=O)OCC(COC(=O)C(CC)CCCC)(COC(=O)C(CC)CCCC)COC(=O)C(CC)CCCC` (centres unmarked) [Trivent PE 48, Pentaerythrityl Tetraethylhexanoate], the “Viskosity (in mPas) (s^−1 = 500)” value was 116 mPas. In the case of Hydroxystearate Glycerol Triacetyle, the “Viskosity (in mPas) (s^−1 = 500)” value is reported as 65 mPas. With PEG-2 Diethylhexanoate [Dermol 488] the “Viskosity (in mPas) (s^−1 = 500)” value was 110 mPas. For “Pentaerythrityl Tetraisostearate [Crodamol PTIS 3797]”, the “Viskosity (in mPas) (s^−1 = 500)” value was 390 mPas. With “Pentaerythrityl Tetraisostearate [DUB PTIS]” the “Viskosity (in mPas) (s^−1 = 500)” value was 57 mPas. In the case of Tridecyl Trimellitate [DUB TMTD], the “Viskosity (in mPas) (s^−1 = 500)” value is reported as 116 mPas. For Triisodecyl Trimelliate [DUB TMI], the “Viskosity (in mPas) (s^−1 = 500)” value was 111 mPas. In the case of Triisononanoin [Isodragol], the “Viskosity (in mPas) (s^−1 = 500)” value is reported as 67 mPas. For Triisostearin [Prisorine 2041 GTIS], the “Viskosity (in mPas) (s^−1 = 500)” value was 99 mPas.
